Assay results reported in US9439961B2, “Pharmaceutical composition for treating ischemic events” (Niigata University, priority 2009, dated 2016).

Key:
[1] = test system: cerebral infarction rat model; assay: Cerebral infarction rat model (thrombus injection): infarct and edema volume of TTC-stained cerebral coronal section; assay type: in vivo, Sprague-Dawley rats
Source text: Sprague-Dawley rats (male, 8 weeks old, obtained from Charles River Laboratories Japan, Inc.) were used to produce cerebral infarction rat models.
(§1) In the present examples, a cerebral infarction rat model shown in FIG. 1B was produced in order to realize a state where cerebral hemorrhage concomitantly occurs as a result of administration of a thrombolytic agent after the therapeutic time window of the thrombolytic therapy. A thrombus was formed by coagulating rat's autologous blood and thrombin as a gel in a polyethylene tube catheter having a diameter of 0.35 mm (PE-50, product of Becton, Dickinson and Company). The formed thrombus was left to stand overnight and then cut to have a length of 1 mm Using the catheter, the thrombus was injected from the external carotid artery (ECA) 1 to the middle cerebral artery (MCA) 2 of the rat under anesthesia with halothane at 1% by mass to 1.5% by mass. Thereafter, the thus-treated rat was measured for cerebral blood flow (CBF) using a laser Doppler flowmetry (AFL21, product of ADVANCE Co., Ltd., Tokyo) before and 30 min or 24 hours after injection of the thrombus.
In the thrombolytic therapy for the cerebral infarction rat models, t-PA serving as a thrombolytic agent (alteplase, product of Mitsubishi Tanabe Pharma Corporation) was injected for 30 min to the femoral vein of each cerebral infarction rat model 1 hour or 4 hours after the injection of the thrombus (10 mg/kg, 10% bolus administration and 90% drip infusion).
Twenty-four hours after the injection of the thrombus, halothane was excessively administered to the rats for euthanasia which were then perfused with PBS, to thereby prepare an unfixed cerebral coronal section.
The cerebral coronal section was stained with TTC at 37° C. for 15 min in PBS (pH 7.4) containing a triphenyltetrazolium salt (TTC) at 2% by mass, and then scanned with a scanner (CanoScan™, product of Canon Co.).
The cerebral infarction and the volume of edema were calculated according to Swanson, R. A., et al. (J. Cereb. Blood Flow Metab. (1990) 10:290-293).
The combined administration of the t-PA and the anti-VEGF antibody was performed as described in Example 2. The effects of the combined administration of the t-PA and the anti-VEGF antibody four hours after the onset of cerebral infarction induced by injection of the thrombus were evaluated by measuring the cerebral infarct volume, edema volume, cerebral hemorrhage volume, and motor function scale of the TTC-stained cerebral coronal section prepared 24 hours after the onset of cerebral infarction induced by injection of the thrombus.
The cerebral infarct volume and the edema volume of the TTC-stained cerebral coronal section were calculated according to Swanson, R. A., et al. (J. Cereb. Blood Flow Metab. (1990) 10:290-293). The statistical significance was validated by ANOVA (analysis of variance), and post hoc comparisons were performed by the Tukey method.

[2] = test system: cerebral infarction rat model; assay: Motor function scale (5 grades) in cerebral infarction rat model; assay type: in vivo, Sprague-Dawley rats; conditions: 24 h after onset
[3] = test system: cerebral infarction rat model; assay: Cerebral hemorrhage volume (hemoglobin concentration, spectrophotometer) in cerebral infarction rat model; assay type: in vivo, Sprague-Dawley rats; conditions: SU1498 20 mg/kg in DMSO single bolus with t-PA four hours after onset; 24 h after onset; vs t-PA and DMSO; P=0.005 (FIG. 5C)
Source text: as §1, with “The formed thrombus was left to stand overnight and then cut to have a length of 1 mm Using the catheter, the thrombus was injected from the external carotid artery (ECA) 1 to the middle cerebral artery (MCA) 2 of the rat under anesthesia with halothane at 1% by mass to 1.5% by mass.” left out, “thrombus. […]” for “thrombus.”
The combined administration of the t-PA and the anti-VEGF antibody was performed as described in Example 2. The effects of the combined administration of the t-PA and the anti-VEGF antibody four hours after the onset of cerebral infarction induced by injection of the thrombus were evaluated by measuring the cerebral infarct volume, edema volume, cerebral hemorrhage volume, and motor function scale of the TTC-stained cerebral coronal section prepared 24 hours after the onset of cerebral infarction induced by injection of the thrombus. […]

VEGF = assay: Western blotting of VEGF expression in cerebral infarction rat model; assay type: in vivo; conditions: t-PA (with control antibody) four hours after onset of cerebral infarction (FIG. 3)
Procedure: In order to suppress or reduce concomitantly occurring cerebral hemorrhage and cerebral infarction exacerbation accompanied with the administration of the t-PA after an acute stage of cerebral infarction in human, 100 μg of rabbit anti-rat VEGF antibody IgG (RB-222, product of Lab Vision-NeoMarkers, hereinafter “anti-VEGF antibody”) was bolus administered together with the t-PA. In the control experiment, 100 μg of rabbit anti-human IgG (R5G10-048, product of OEM Concepts, hereinafter “control antibody”) was bolus administered together with the t-PA.
Using the total cell extract as a sample, western blotting was performed according to the method described in Shimohata, T., et al. (J. Cereb. Blood Flow Metab. (2007) 27:1463-1475).
The VEGF was detected using anti-VEGF antibody (SC-152, product of Santa Cruz Biotechnologies, dilution ratio: 1:200) as a primary antibody, and peroxidase-conjugated anti-rabbit IgG antibody (dilution ratio: 1:10,000) as a secondary antibody.
Also, in order to confirm that the amounts of the protein applied were uniform in all the samples, β-actin was detected by allowing anti-β-actin (SC-1616, product of Santa Cruz Biotechnologies, dilution ratio: 1:2,000) and the above secondary antibody to react on the blotting membrane from which the primary and secondary antibodies had been removed. […]

[4] = t-PA 10 mg/kg i.v. four hours after injection of thrombus, vs t-PA one hour after (FIG. 2C)

| Compound | cerebral infarct volume ([1]; SU1498 20 mg/kg in DMSO single bolus with t-PA four hours after onset, 24 h after onset, vs t-PA and DMSO, n=6 (FIG. 5A)) | edema volume ([1]; SU1498 20 mg/kg in DMSO single bolus with t-PA four hours after onset, 24 h after onset, vs t-PA and DMSO, n=6 (FIG. 5B)) | motor function scale (prognosis) ([2]; SU1498 20 mg/kg with t-PA four hours after onset, vs t-PA and DMSO, n=10 (FIG. 5D)) | cerebral hemorrhage volume (hemoglobin concentration) [3] | area where cerebral infarction occurred [1, 4] | hemorrhage in the area where cerebral infarction occurred [1, 4] | area where cerebral infarction occurred ([1]; t-PA 10 mg/kg i.v. one hour after injection of thrombus, section 24 h after, vs animal receiving no t-PA (FIG. 2B)) | motor function scale (prognosis) ([2]; t-PA and control antibody four hours after onset, vs control antibody only (FIG. 4D)) | expression level of the VEGF (western blot) (VEGF) |
| --- | --- | --- | --- | --- | --- | --- | --- | --- | --- |
| CC(C)c1cc(/C=C(\C#N)C(=O)NCCCc2ccccc2)cc(C(C)C)c1O [SU1498, (E)-3-(3,5-diisopropyl-4-hydroxyphenyl)-2-((3-phenyl-n-propyl)amino-carbonyl)acrylonitrile] | could not reduce | could not reduce | better in prognosis | could reduce | – | – | – | – | – |
| t-PA: t-PA serving as a thrombolytic agent (alteplase, product of Mitsubishi Tanabe Pharma Corporation) | – | – | – | – | enlargement | considerably observed | smaller | worse in prognosis | considerably increase |
